Structures can show the parent of a compound that is named as a salt.

The nature of data set [1]: Solubility of the mesylate salt in H2O. The data set is classed as physicochemical. The protocol: To obtain the methansulphonate salt (mesylate salt), 4 ml of 0.1N CH3SO3H in EtOAc was added to a solution of 145 mg (0.4 mmol) 6-cyclopropylamino-9-(2-fluorobenzyl)-2-trifluoromethylpurine in EtOAc. Then, 1 ml of hexane was added to a warm solution and the resultant mixture was allowed to crystallize (within a refrigerator). The solid was collected to give 148 mg of the mesylate salt. […] M.p. 167.5-169.0 C; m.p. 114-118 C for free base.

The test system of data set [2] is rats. As to the kind of experiment: Radial arm maze task in rats, an in vivo test for learning and memory. The arrangement: species or system rat. To be noted: MK-801 0.1 mg/kg, i.p., compared to control, p<0.01. Here is the method: The test was performed as previously described (Zhang, H.-T., Crissman, A. M., Dorairaj, N. R., Chandler, L. J., and O'Donnell, J. M., Neuropsychopharmacology, 2000, 23, 198-204.). Five days after initial housing, rats (male Spraque-Dawley (Harlan) weighing 250 to 350 g) were placed in the eight-arm radial maze (each arm was 60×10×12 cm high; the maze was elevated 70 cm above the floor) for acclimation for two days. Rats were then placed individually in the center of the maze for 5 minutes with food pellets placed close to the food wells, and then, the next day, in the wells at the end of the arms; 2 sessions a day were conducted. Next, four randomly selected arms were then baited with one pellet of food each. The rat was restricted to the center platform (26 cm in diameter) for 15 seconds and then allowed to move freely throughout the maze until it collected all pellets of food or 10 minutes passed, whichever came first. Four parameters were recorded: 1) working memory errors, i.e., entries into baited arms that had already been visited during the same trial; 2) reference memory errors, i.e., entries into unbaited arms; 3) total arm entries; and 4) the test duration (seconds), i.e., the time spent in the collection of all the pellets in the maze. […]
(§1) All data were analyzed by analyses of variance (ANOVA); individual comparisons were made using Kewman-Keuls tests. […]

Data set [3] has as its system rats. As to the kind of experiment: Passive avoidance in rats, an in vivo test for learning and memory. Also noted: species or system rat. The settings on record: MK-801 0.1 mg/kg pretreatment, compared to the vehicle, p<0.001, 24 hours after electric shock. The protocol:
The test was performed as previously described (Zhang, H.-T., Crissman, A. M., Dorairaj, N. R., Chandler, L. J., and O'Donnell, J. M., Neuropsychopharmacology, 2000, 23, 198-204.). The apparatus (Model E10-16SC, Coulbourn Instruments, Allentown, Pa.) consisted of a two-compartment chamber with an illuminated compartment connected to a darkened compartment by a guillotine door. The floor of the darkened compartment consisted of stainless steel rods through which an electric foot-shock could be delivered from a constant current source. All experimental groups were first habituated to the apparatus the day before the start of the experiment. During the training, the rat (Male Spraque-Dawley (Harlan) weighing 250 to 350 g) was placed in the illuminated compartment facing away from the closed guillotine door for 1 minute before the door was raised. The latency for entering the darkened compartment was recorded. After the rat entered the darkened compartment, the door was closed and a 0.5 mA electric shock was administered for 3 seconds. […] The latency for entering the darkened compartment was recorded for up to 180 seconds, at which time the trial was terminated.
as §1

As to `Fc1ccccc1Cn1cnc2c(NC3CC3)nc(C(F)(F)F)nc21` [Example 4 mesylate salt, 6-cyclopropylamino-9-(2-fluorobenzyl)-2-trifluoromethylpurine], the “solubility in H2O” value in data set [1] is reported as “relatively insoluble”.
On to `C[C@]12N[C@H](Cc3ccccc31)c1ccccc12` [MK-801], for which, in the data set with rats [2], the “frequency of reference memory errors” value is reported as “increased” and the “frequency of working memory errors” value is reported as “increased”. In the data set with rats [3], the “latency for entering the darkened compartment (retention test)” value is “markedly reduced”.
